# Data from patent US10681909B2, “Herbicidal triazoles” (FMC Corporation, priority 2014, dated 2020).
# Legend:
# barnyardgrass [1] = experiment: Test A preemergence; assay type: in vivo, Echinochloa crus-galli; conditions: 0 to 100 scale (0 no effect, 100 complete control)
# Outline: (§1)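 Test chemicals, formulated in a surfactant-containing non-phytotoxic solvent mixture, are applied either as a directed soil spray to newly planted seeds or as a postemergence application to plants at the one- to two-leaf stage (2–10 cm). All plants grow in a loam soil and sand blend.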
# foxtail, giant [2] = experiment: Test A preemergence; assay type: in vivo, Setaria faberii; conditions: 0 to 100 scale (0 no effect, 100 complete control)
# Outline: as §1
# barnyardgrass [3] = experiment: Test A postemergence; assay type: in vivo, Echinochloa crus-galli; conditions: 0 to 100 scale (0 no effect, 100 complete control), approx. 10 d
# Outline: as §1
# foxtail, giant [4] = experiment: Test A postemergence; assay type: in vivo, Setaria faberii; conditions: 0 to 100 scale (0 no effect, 100 complete control), approx. 10 d
# Outline: as §1
# pigweed = experiment: Test A postemergence; assay type: in vivo, Amaranthus retroflexus; conditions: 0 to 100 scale (0 no effect, 100 complete control), approx. 10 d
# Outline: as §1
# wheat = experiment: Test A postemergence; assay type: in vivo, Triticum aestivum; conditions: 0 to 100 scale (0 no effect, 100 complete control), approx. 10 d
# Outline: as §1
# sedge, umbrella = experiment: Test B flooded paddy test; assay type: in vivo, Cyperus difformis; conditions: 250 g ai/ha, applied to paddy water at 2-leaf stage, visual rating after 13 to 15 d, scale 0 (no effect) to 100 (complete control)
# Outline: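 Pots were flooded to 3 cm above the soil at treatment, and compounds were applied directly into the paddy water. That depth was held throughout. After 13 to 15 d in a greenhouse, plants were rated visually against untreated controls.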
# blackgrass = experiment: Test C postemergence; assay type: in vivo, Alopecurus myosuroides
# Outline: (§2)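 Plants are treated postemergence at the 1- to 4-leaf stage (2 to 18 cm), grown in sphagnum peat/vermiculite medium; preemergence treatment is applied to seed planted in loam soil with sand. Both use test chemical in a non-phytotoxic solvent mixture with surfactant.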
# ryegrass, Italian = experiment: Test C postemergence; assay type: in vivo, Lolium multiflorum
# Outline: as §2
# galium = experiment: Test C postemergence; assay type: in vivo, Galium aparine
# Outline: as §2
# corn = experiment: Test C postemergence; assay type: in vivo, Zea mays
# Outline: as §2
# crabgrass, large = experiment: Test C postemergence; assay type: in vivo, Digitaria sanguinalis
# Outline: as §2
# johnsongrass = experiment: Test C postemergence; assay type: in vivo, Sorghum halepense
# Outline: as §2
# morningglory = experiment: Test C postemergence; assay type: in vivo, Ipomoea coccinea
# Outline: as §2
# nutsedge, yellow = experiment: Test C postemergence; assay type: in vivo, Cyperus esculentus
# Outline: as §2
# barnyardgrass [5] = experiment: Test C postemergence; assay type: in vivo, Echinochloa crus-galli
# Outline: as §2
# oilseed rape = experiment: Test C postemergence; assay type: in vivo, Brassica napus
# Outline: as §2
# waterhemp = experiment: Test C postemergence; assay type: in vivo, Amaranthus rudis
# Outline: as §2
# velvetleaf = experiment: Test C postemergence; assay type: in vivo, Abutilon theophrasti
# Outline: as §2
# kochia = experiment: Test C postemergence; assay type: in vivo, Kochia scoparia
# Outline: as §2
smiles,measurement,setting,value
COc1nc(-c2ccc(C(F)(F)F)cc2)nn1Cc1ccnc(C(F)(F)F)c1 [Compound 25],"Plant response rating, Barnyardgrass",barnyardgrass [1]; 31 g ai/ha,10
same,"Plant response rating, Barnyardgrass",barnyardgrass [1]; 125 g ai/ha,70
same,"Plant response rating, Foxtail, Giant","foxtail, giant [2]; 31 g ai/ha",70
same,"Plant response rating, Foxtail, Giant","foxtail, giant [2]; 125 g ai/ha",100
same,"Plant response rating, Barnyardgrass",barnyardgrass [3]; 31 g ai/ha,20
same,"Plant response rating, Barnyardgrass",barnyardgrass [3]; 125 g ai/ha,60
same,"Plant response rating, Foxtail, Giant","foxtail, giant [4]; 31 g ai/ha",50
same,"Plant response rating, Foxtail, Giant","foxtail, giant [4]; 125 g ai/ha",90
same,"Plant response rating, Pigweed",pigweed; 31 g ai/ha,90
same,"Plant response rating, Pigweed",pigweed; 125 g ai/ha,100
same,"Plant response rating, Wheat",wheat; 31 g ai/ha,10
same,"Plant response rating, Wheat",wheat; 125 g ai/ha,20
same,"Plant response rating, Sedge, Umbrella, Flood","sedge, umbrella",95
same,Plant response rating (scale of 0 to 100 where 0 is no effect and 100 is complete control),blackgrass; 31 g ai/ha,5
same,Plant response rating (scale of 0 to 100 where 0 is no effect and 100 is complete control),blackgrass; 62 g ai/ha,10
same,Plant response rating (scale of 0 to 100 where 0 is no effect and 100 is complete control),blackgrass; 125 g ai/ha,30
same,Plant response rating (scale of 0 to 100 where 0 is no effect and 100 is complete control),blackgrass; 250 g ai/ha,60
same,Plant response rating (scale of 0 to 100 where 0 is no effect and 100 is complete control),"ryegrass, Italian; 31 g ai/ha",5
same,Plant response rating (scale of 0 to 100 where 0 is no effect and 100 is complete control),"ryegrass, Italian; 62 g ai/ha",5
same,Plant response rating (scale of 0 to 100 where 0 is no effect and 100 is complete control),"ryegrass, Italian; 125 g ai/ha",10
same,Plant response rating (scale of 0 to 100 where 0 is no effect and 100 is complete control),"ryegrass, Italian; 250 g ai/ha",30
same,Plant response rating (scale of 0 to 100 where 0 is no effect and 100 is complete control),galium; 31 g ai/ha,80
same,Plant response rating (scale of 0 to 100 where 0 is no effect and 100 is complete control),galium; 62 g ai/ha,90
same,Plant response rating (scale of 0 to 100 where 0 is no effect and 100 is complete control),galium; 125 g ai/ha,90
same,Plant response rating (scale of 0 to 100 where 0 is no effect and 100 is complete control),galium; 250 g ai/ha,90
same,Plant response rating (scale of 0 to 100 where 0 is no effect and 100 is complete control),corn; 31 g ai/ha,20
same,Plant response rating (scale of 0 to 100 where 0 is no effect and 100 is complete control),corn; 62 g ai/ha,20
same,Plant response rating (scale of 0 to 100 where 0 is no effect and 100 is complete control),corn; 125 g ai/ha,25
same,Plant response rating (scale of 0 to 100 where 0 is no effect and 100 is complete control),corn; 250 g ai/ha,25
same,Plant response rating (scale of 0 to 100 where 0 is no effect and 100 is complete control),"crabgrass, large; 31 g ai/ha",15
same,Plant response rating (scale of 0 to 100 where 0 is no effect and 100 is complete control),"crabgrass, large; 62 g ai/ha",20
same,Plant response rating (scale of 0 to 100 where 0 is no effect and 100 is complete control),"crabgrass, large; 125 g ai/ha",30
same,Plant response rating (scale of 0 to 100 where 0 is no effect and 100 is complete control),"crabgrass, large; 250 g ai/ha",45
same,Plant response rating (scale of 0 to 100 where 0 is no effect and 100 is complete control),johnsongrass; 31 g ai/ha,10
same,Plant response rating (scale of 0 to 100 where 0 is no effect and 100 is complete control),johnsongrass; 62 g ai/ha,20
same,Plant response rating (scale of 0 to 100 where 0 is no effect and 100 is complete control),johnsongrass; 125 g ai/ha,20
same,Plant response rating (scale of 0 to 100 where 0 is no effect and 100 is complete control),johnsongrass; 250 g ai/ha,30
same,Plant response rating (scale of 0 to 100 where 0 is no effect and 100 is complete control),morningglory; 31 g ai/ha,90
same,Plant response rating (scale of 0 to 100 where 0 is no effect and 100 is complete control),morningglory; 62 g ai/ha,85
same,Plant response rating (scale of 0 to 100 where 0 is no effect and 100 is complete control),morningglory; 125 g ai/ha,75
same,Plant response rating (scale of 0 to 100 where 0 is no effect and 100 is complete control),morningglory; 250 g ai/ha,95
same,Plant response rating (scale of 0 to 100 where 0 is no effect and 100 is complete control),"nutsedge, yellow; 31 g ai/ha",20
same,Plant response rating (scale of 0 to 100 where 0 is no effect and 100 is complete control),"nutsedge, yellow; 62 g ai/ha",20
same,Plant response rating (scale of 0 to 100 where 0 is no effect and 100 is complete control),"nutsedge, yellow; 125 g ai/ha",25
same,Plant response rating (scale of 0 to 100 where 0 is no effect and 100 is complete control),"nutsedge, yellow; 250 g ai/ha",25
same,Plant response rating (scale of 0 to 100 where 0 is no effect and 100 is complete control),barnyardgrass [5]; 31 g ai/ha,20
same,Plant response rating (scale of 0 to 100 where 0 is no effect and 100 is complete control),barnyardgrass [5]; 62 g ai/ha,25
same,Plant response rating (scale of 0 to 100 where 0 is no effect and 100 is complete control),barnyardgrass [5]; 125 g ai/ha,35
same,Plant response rating (scale of 0 to 100 where 0 is no effect and 100 is complete control),barnyardgrass [5]; 250 g ai/ha,35
same,Plant response rating (scale of 0 to 100 where 0 is no effect and 100 is complete control),"oilseed rape; Oilsee Rape, 250 g ai/ha",90
same,Plant response rating (scale of 0 to 100 where 0 is no effect and 100 is complete control),"oilseed rape; Oilseed Rape, 31 g ai/ha",90
same,Plant response rating (scale of 0 to 100 where 0 is no effect and 100 is complete control),"oilseed rape; Oilseed Rape, 62 g ai/ha",90
same,Plant response rating (scale of 0 to 100 where 0 is no effect and 100 is complete control),"oilseed rape; Oilseed Rape, 125 g ai/ha",90
same,Plant response rating (scale of 0 to 100 where 0 is no effect and 100 is complete control),waterhemp; 31 g ai/ha,95
same,Plant response rating (scale of 0 to 100 where 0 is no effect and 100 is complete control),waterhemp; 62 g ai/ha,95
same,Plant response rating (scale of 0 to 100 where 0 is no effect and 100 is complete control),waterhemp; 125 g ai/ha,98
same,Plant response rating (scale of 0 to 100 where 0 is no effect and 100 is complete control),waterhemp; 250 g ai/ha,95
same,Plant response rating (scale of 0 to 100 where 0 is no effect and 100 is complete control),velvetleaf; 31 g ai/ha,35
same,Plant response rating (scale of 0 to 100 where 0 is no effect and 100 is complete control),velvetleaf; 62 g ai/ha,50
same,Plant response rating (scale of 0 to 100 where 0 is no effect and 100 is complete control),velvetleaf; 125 g ai/ha,70
same,Plant response rating (scale of 0 to 100 where 0 is no effect and 100 is complete control),velvetleaf; 250 g ai/ha,75
same,Plant response rating (scale of 0 to 100 where 0 is no effect and 100 is complete control),kochia; 31 g ai/ha,90
same,Plant response rating (scale of 0 to 100 where 0 is no effect and 100 is complete control),kochia; 62 g ai/ha,90
same,Plant response rating (scale of 0 to 100 where 0 is no effect and 100 is complete control),kochia; 125 g ai/ha,90
same,Plant response rating (scale of 0 to 100 where 0 is no effect and 100 is complete control),kochia; 250 g ai/ha,95
